The target of this test is CDK12/CycK (Homo sapiens, UniProt Q9NYV4). Briefly: CDK12/CycK high ATP kinase assay (TR-FRET, 2 mM ATP). In kind it is biochemical. As to conditions: 2 mM ATP (high ATP); median; read-out: CDK12/CyclinK, 2 mM ATP (high ATP), IC50-[mol/l] (median). The gist of the method: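 His-tagged human CDK12/CycK (~0.75 nM) pre-incubated 15 min with compound, then 60 min at 22 °C with 2 mM ATP and 1 µM biotinylated peptide (HEPES pH 7.5, 20 mM MgCl2). EDTA stop; phospho-Ser62 antibody/Eu anti-rabbit and streptavidin-XL665 TR-FRET, 665/620 nm ratio normalised to give IC50.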
Sequence of CDK12/CycK (Q9NYV4 with tags, fused parts or gaps): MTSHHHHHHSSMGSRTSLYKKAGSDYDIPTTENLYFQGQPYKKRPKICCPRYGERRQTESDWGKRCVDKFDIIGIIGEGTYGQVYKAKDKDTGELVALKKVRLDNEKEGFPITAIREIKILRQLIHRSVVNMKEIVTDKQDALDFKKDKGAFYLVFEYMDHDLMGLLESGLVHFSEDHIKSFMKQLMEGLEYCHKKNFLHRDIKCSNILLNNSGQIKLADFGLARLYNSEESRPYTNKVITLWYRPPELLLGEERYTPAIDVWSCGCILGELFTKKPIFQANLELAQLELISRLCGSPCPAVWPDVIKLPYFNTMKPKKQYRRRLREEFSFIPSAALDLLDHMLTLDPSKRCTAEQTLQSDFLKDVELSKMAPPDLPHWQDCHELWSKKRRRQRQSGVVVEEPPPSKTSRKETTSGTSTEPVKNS
Sequence of CDK12/CycK (O75909 1-300 partner limits assumed): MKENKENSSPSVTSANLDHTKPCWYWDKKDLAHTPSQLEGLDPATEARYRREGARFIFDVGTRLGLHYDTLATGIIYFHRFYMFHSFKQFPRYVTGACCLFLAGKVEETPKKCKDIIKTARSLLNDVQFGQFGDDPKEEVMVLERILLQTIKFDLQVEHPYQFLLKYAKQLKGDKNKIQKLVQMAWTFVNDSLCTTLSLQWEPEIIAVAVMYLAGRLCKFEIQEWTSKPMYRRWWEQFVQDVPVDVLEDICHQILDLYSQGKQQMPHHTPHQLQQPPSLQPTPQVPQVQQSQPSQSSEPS
For orientation: Time-resolved FRET reads energy transfer from a long-lived donor to a nearby acceptor.

Consider `OCC1COCCN1c1nc(NCc2nc3ccccc3[nH]2)n2ncc(Br)c2n1` (stereo not shown) [Example 67, (4-{4-[(1H-benzimidazol-2-ylmethyl)amino]-8-bromopyrazolo[1,5-a][1,3,5]triazin-2-yl}morpholin-3-yl)methanol], for which the IC50 worked out at 2.74 µM.

As for `FC(F)(F)Oc1cccc(-c2cnc(CNc3nc(N4CCOCC4)nc4c(Br)cnn34)[nH]2)c1` [Example 82, 8-bromo-2-(morpholin-4-yl)-N-({5-[3-(trifluoromethoxy)phenyl]-1H-imidazol-2-yl}methyl)pyrazolo[1,5-a][1,3,5]triazin-4-amine], the IC50 worked out at 0.916 µM.

Turning to `FC(F)(F)c1ccccc1-c1cnc(CNc2nc(N3CCOCC3)nc3c(Br)cnn23)[nH]1` [Example 88, 8-bromo-2-(morpholin-4-yl)-N-({5-[2-(trifluoromethyl)phenyl]-1H-imidazol-2-yl}methyl)pyrazolo[1,5-a][1,3,5]triazin-4-amine], the IC50 worked out at 1.36 µM.

Consider `Brc1cnn2c(NCc3nnc(-c4ccccc4)[nH]3)nc(N3CC4(COC4)C3)nc12` [Example 65, 8-bromo-2-(2-oxa-6-azaspiro[3.3]heptan-6-yl)-N-[(5-phenyl-4H-1,2,4-triazol-3-yl)methyl]pyrazolo[1,5-a][1,3,5]triazin-4-amine], for which the IC50 is over 5.71 µM.

As for `CC(C)c1cnn2c(NCc3nc4ccccc4[nH]3)nc(N(C)C)nc12` [Example 3, N^4-[(1H-benzimidazol-2-yl)methyl]-N^2,N^2-dimethyl-8-(propan-2-yl)pyrazolo[1,5-a][1,3,5]triazine-2,4-diamine], the IC50 was over 20 µM.

As to `Cc1ccccc1-c1cnc(CNc2nc(N3CCOCC3)nc3c(Br)cnn23)[nH]1` [Example 85, 8-bromo-N-{[5-(2-methylphenyl)-1H-imidazol-2-yl]methyl}-2-(morpholin-4-yl)pyrazolo[1,5-a][1,3,5]triazin-4-amine], the IC50 turned out to be 6.33 µM.

`Brc1cnn2c(NCc3nnc(-c4ccccc4)[nH]3)nc(N3CCCC3)nc12` [Example 64, 8-bromo-N-[(5-phenyl-4H-1,2,4-triazol-3-yl)methyl]-2-(pyrrolidin-1-yl)pyrazolo[1,5-a][1,3,5]triazin-4-amine]: the IC50 is 5.52 µM.

As for `Clc1ccc(-c2cnc(CNc3nc(N4CCOCC4)nc4c(Br)cnn34)[nH]2)cc1` [Example 72, 8-bromo-N-{[5-(4-chlorophenyl)-1H-imidazol-2-yl]methyl}-2-(morpholin-4-yl)pyrazolo[1,5-a][1,3,5]triazin-4-amine], the IC50 amounted to 0.547 µM.

Consider `CC(C)c1cnn2c(NCc3nc4ccccc4[nH]3)nc(N3CCN(C)CC3)nc12` [Example 2, N-[(1H-benzimidazol-2-yl)methyl]-2-(4-methylpiperazin-1-yl)-8-(propan-2-yl)pyrazolo[1,5-a][1,3,5]triazin-4-amine], for which the IC50 was over 20 µM.

Take `Fc1ccccc1-c1nnc(CNc2nc(N3CCOCC3)nc3c(Br)cnn23)[nH]1` [Example 75, 8-bromo-N-{[5-(2-fluorophenyl)-4H-1,2,4-triazol-3-yl]methyl}-2-(morpholin-4-yl)pyrazolo[1,5-a][1,3,5]triazin-4-amine]: the IC50 was over 3.77 µM.

With `Brc1cnn2c(NCc3ncc(-c4ccccn4)[nH]3)nc(N3CCOCC3)nc12` [Example 90, 8-bromo-2-(morpholin-4-yl)-N-{[5-(pyridin-2-yl)-1H-imidazol-2-yl]methyl}pyrazolo[1,5-a][1,3,5]triazin-4-amine], the IC50 stood at 4.42 µM.

On to `Fc1cccc(-c2cnn3c(NCc4nc5ccccc5[nH]4)nc(N4CCOCC4)nc23)c1` [Example 91, N-[(1H-benzimidazol-2-yl)methyl]-8-(3-fluorophenyl)-2-(morpholin-4-yl)pyrazolo[1,5-a][1,3,5]triazin-4-amine], for which the IC50 is over 57.1 µM.

Consider `Clc1ccccc1-c1nnc(CNc2nc(N3CCOCC3)nc3c(Br)cnn23)[nH]1` [Example 69, 8-bromo-N-{[5-(2-chlorophenyl)-4H-1,2,4-triazol-3-yl]methyl}-2-(morpholin-4-yl)pyrazolo[1,5-a][1,3,5]triazin-4-amine], for which the IC50 was over 5.71 µM.

Turning to `COC(=O)C1CCN(c2nc(NCc3nc4ccccc4[nH]3)n3ncc(Br)c3n2)CC1` [Example 63, methyl 1-(4-{[(1H-benzimidazol-2-yl)methyl]amino}-8-bromopyrazolo[1,5-a][1,3,5]triazin-2-yl)piperidine-4-carboxylate], the IC50 was 11.5 µM.

Turning to `C[C@@H]1CN(c2nc(NCc3nnc(-c4ccccc4)[nH]3)n3ncc(Br)c3n2)C[C@H](C)O1` [Example 78, 8-bromo-2-[(2R,6S)-2,6-dimethylmorpholin-4-yl]-N-[(5-phenyl-4H-1,2,4-triazol-3-yl)methyl]pyrazolo[1,5-a][1,3,5]triazin-4-amine], the IC50 was 0.726 µM.

Regarding `COC1CCN(c2nc(NCc3nnc(-c4ccccc4)[nH]3)n3ncc(Br)c3n2)CC1` [Example 76, 8-bromo-2-(4-methoxypiperidin-1-yl)-N-[(5-phenyl-4H-1,2,4-triazol-3-yl)methyl]pyrazolo[1,5-a][1,3,5]triazin-4-amine], the IC50 is over 5.33 µM.

As to `Fc1cccc(-c2cnc(CNc3nc(N4CCOCC4)nc4c(Br)cnn34)[nH]2)c1` [Example 79, 8-bromo-N-{[5-(3-fluorophenyl)-1H-imidazol-2-yl]methyl}-2-(morpholin-4-yl)pyrazolo[1,5-a][1,3,5]triazin-4-amine], the IC50 is 0.566 µM.

For the compound `FC(F)(F)c1cccc(-c2cnc(CNc3nc(N4CCOCC4)nc4c(Br)cnn34)[nH]2)c1` [Example 83, 8-bromo-2-(morpholin-4-yl)-N-({5-[3-(trifluoromethyl)phenyl]-1H-imidazol-2-yl}methyl)pyrazolo[1,5-a][1,3,5]triazin-4-amine], the IC50 turned out to be 1.04 µM.

Consider `c1ccc2[nH]c(CNc3nc(N4CCOCC4)nc4c(C5CC5)cnn34)nc2c1` [Example 92, N-[(1H-benzimidazol-2-yl)methyl]-8-cyclopropyl-2-(morpholin-4-yl)pyrazolo[1,5-a][1,3,5]triazin-4-amine], for which the IC50 came to 3.25 µM.

As for `FC(F)(F)Oc1ccccc1-c1cnc(CNc2nc(N3CCOCC3)nc3c(Br)cnn23)[nH]1` [Example 89, 8-bromo-2-(morpholin-4-yl)-N-({5-[2-(trifluoromethoxy)phenyl]-1H-imidazol-2-yl}methyl)pyrazolo[1,5-a][1,3,5]triazin-4-amine], the IC50 was found to be 10.7 µM.

In the case of `FC(F)(F)Oc1ccccc1-c1nnc(CNc2nc(N3CCOCC3)nc3c(Br)cnn23)[nH]1` [Example 74, 8-bromo-2-(morpholin-4-yl)-N-({5-[2-(trifluoromethoxy)phenyl]-4H-1,2,4-triazol-3-yl}methyl)pyrazolo[1,5-a][1,3,5]triazin-4-amine], the IC50 was over 20 µM.

For the compound `Brc1cnn2c(NCc3ncc(-c4cccnc4)[nH]3)nc(N3CCOCC3)nc12` [Example 84, 8-bromo-2-(morpholin-4-yl)-N-{[5-(pyridin-3-yl)-1H-imidazol-2-yl]methyl}pyrazolo[1,5-a][1,3,5]triazin-4-amine], the IC50 stood at 2.09 µM.

Turning to `Clc1cccc(-c2cnc(CNc3nc(N4CCOCC4)nc4c(Br)cnn34)[nH]2)c1` [Example 81, 8-bromo-N-{[5-(3-chlorophenyl)-1H-imidazol-2-yl]methyl}-2-(morpholin-4-yl)pyrazolo[1,5-a][1,3,5]triazin-4-amine], the IC50 came to 0.765 µM.

For `COC(=O)C1CCN(c2nc(NCc3nnc(-c4ccccc4)[nH]3)n3ncc(Br)c3n2)CC1` [Example 77, methyl 1-(8-bromo-4-{[(5-phenyl-4H-1,2,4-triazol-3-yl)methyl]amino}pyrazolo[1,5-a][1,3,5]triazin-2-yl)piperidine-4-carboxylate], the IC50 was 10.1 µM.

With `C[C@@H]1CN(c2nc(NCc3nc4ccccc4[nH]3)n3ncc(Br)c3n2)C[C@H](C)O1` [Example 73, N-[(1H-benzimidazol-2-yl)methyl]-8-bromo-2-[(2R,6S)-2,6-dimethylmorpholin-4-yl]pyrazolo[1,5-a][1,3,5]triazin-4-amine], the IC50 turned out to be 0.664 µM.

As for `OC[C@@H]1CCCCN1c1nc(NCc2nnc(-c3ccccc3)[nH]2)n2ncc(Br)c2n1` [Example 70, [(2S)-1-(8-bromo-4-{[(5-phenyl-4H-1,2,4-triazol-3-yl)methyl]amino}pyrazolo[1,5-a][1,3,5]triazin-2-yl)piperidin-2-yl]methanol], the IC50 was 0.621 µM.

Turning to `COC1CCN(c2nc(NCc3nc4ccccc4[nH]3)n3ncc(Br)c3n2)CC1` [Example 62, N-[(1H-benzimidazol-2-yl)methyl]-8-bromo-2-(4-methoxypiperidin-1-yl)pyrazolo[1,5-a][1,3,5]triazin-4-amine], the IC50 was 5.69 µM.

With `c1ccc(-c2nnc(CNc3nc(N4CCOCC4)nc4c(C5CC5)cnn34)[nH]2)cc1` [Example 93, 8-cyclopropyl-2-(morpholin-4-yl)-N-[(5-phenyl-4H-1,2,4-triazol-3-yl)methyl]pyrazolo[1,5-a][1,3,5]triazin-4-amine], the IC50 was determined as 2.7 µM.

Consider `Fc1ccc(-c2cnc(CNc3nc(N4CCOCC4)nc4c(Br)cnn34)[nH]2)cc1` [Example 66, 8-bromo-N-{[5-(4-fluorophenyl)-1H-imidazol-2-yl]methyl}-2-(morpholin-4-yl)pyrazolo[1,5-a][1,3,5]triazin-4-amine], for which the IC50 came to 1.02 µM.

With `OC[C@H]1CCCCN1c1nc(NCc2nnc(-c3ccccc3)[nH]2)n2ncc(Br)c2n1` [Example 71, [(2R)-1-(8-bromo-4-{[(5-phenyl-4H-1,2,4-triazol-3-yl)methyl]amino}pyrazolo[1,5-a][1,3,5]triazin-2-yl)piperidin-2-yl]methanol], the IC50 came out at 4.33 µM.

Consider `CC1(C)CN(c2nc(NCc3nnc(-c4ccccc4)[nH]3)n3ncc(Br)c3n2)CCO1` [Example 68, 8-bromo-2-(2,2-dimethylmorpholin-4-yl)-N-[(5-phenyl-4H-1,2,4-triazol-3-yl)methyl]pyrazolo[1,5-a][1,3,5]triazin-4-amine], for which the IC50 was 5.52 µM.

Source of the values: patent US20230117034A1, “PYRAZOLOTRIAZINES” (Bayer Aktiengesellschaft, priority 2019, published 2023).
